Results: patent US20220241247A1, “PHARMACOLOGICAL AGENTS FOR TREATING PROTEIN AGGREGATION DISEASES OF THE EYE” (PLEX PHARMACEUTICALS, INC., priority 2019, published 2022)
Where two headings read alike, the source gives them in different places. Values belong to the compound of their own block, whether it stands above or below them.

Tests used:
Solubility = assay type: physicochemical; conditions: for solubility: disodium salt
Procedure: (§1) Therefore, in order to improve the aqueous solubility and bioavailability, the present disclosure provides prodrugs of CAP4349.
To a solution of Tafamidis, CAP4349 (308 mg) in DMF (10 mL) was added K2CO3 (220 mg) and KI (132 mg) followed by di-tert-butyl chloromethyl phosphate at room temperature while stirring. The reaction mixture was stirred at 70° C. for two hours. The reaction was quenched with ice and extracted three times in Ethyl Acetate. The combined organic layer was washed with water followed by 1% aqueous solution of sodium thiosulfate, and lastly with Brine, yielding the intermediate t-butyl protected phosphate. The t-butyl protected phosphate intermediate was converted to disodium salt in two steps by cleaving the protecting group with TFA followed by NaHCO3 treatment in the presence of water and THF resulting in disodium salt of CAP4357, as a white solid.

AAC [1] = molecular target: T1, AAC (Homo sapiens, UniProt P02489); test: UV-induced aggregation of hAAC, SDS-PAGE; assay type: biochemical; conditions: UV light 15 minutes; 0-1000 μM; 4-20% SDS-PAGE
T1 sequence (P02489 1-173): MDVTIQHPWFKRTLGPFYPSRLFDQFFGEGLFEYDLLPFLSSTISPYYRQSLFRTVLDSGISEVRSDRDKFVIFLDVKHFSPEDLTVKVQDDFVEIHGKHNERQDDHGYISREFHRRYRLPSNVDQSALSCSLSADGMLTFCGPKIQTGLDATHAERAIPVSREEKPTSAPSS
Procedure: (§2) It was determined that CAP4349 protects hAAC from UV-induced aggregation in a concentration-dependent manner. The meglumine salt of Tafamidis (CAP4349-M) was tested for its ability to prevent hAAC aggregation using SDS/PAGE and absorbance.
hAAC, with or without CAP4349-M (meglumine salt, 0-1000 μM), was exposed to UV light for 15 minutes and analyzed on a 4-20% gradient SDS-PAGE gel.

[2] = Drug bank value; cited from earlier work
AAC [3] = molecular target: T1, AAC; test: UV-induced aggregation of hAAC, measured by absorbance; assay type: biochemical
Procedure: as §2
In another study, hAAC, with or without CAP4349-M, was exposed to UV light for 60 minutes and the resulting aggregation was measured by absorbance. The results are shown in FIG. 1B in terms of mean percentage absorbance change±SD (n=3 or 4). The EC50 value, which is the half-maximal response of hAAC aggregation, was determined to be19.7(±1.4) μM.

AAC [4] = molecular target: T1, AAC; test: Chaperone assay: heat and DTT-induced aggregation of lysozyme in presence of AAC; assay type: biochemical; conditions: AAC 250, lysozyme 500 μg/ml; 10 mM DTT, 37° C.; absorbance at 400 nm
Procedure: (§3) Post translational modification, due to UV light, oxidation, glycation, crosslinking, and proteolysis can affect the CLA of AAC and its ability to prevent the aggregation of target proteins. These modifications lead to aggregation of other lens crystallins, which culminate in the development of lens opacity and cataract development. Since CAP4349 prevents aggregation of hACC, the effect of CAP4349 on the CLA activity of AAC was evaluated using in vitro chaperone assays with (i) lysozyme as a model client protein, and (ii) bovine γ-crystallin (BGC), as a physiologically relevant lenticular protein.
Heat-induced aggregation of lysozyme: In the presence of a reducing agent (DTT) and heat (37° C.), lysozyme undergoes denaturation and aggregation. The CLA activity of AAC can protect lysozyme against heat and DTT-induced aggregation (Robey, R. L. et al. (1997), Journal of Heterocyclic Chemistry, 34: (2)413-428).

AAC [5] = molecular target: T1, AAC; test: Chaperone assay: UV-induced aggregation of BGC in presence of AAC; assay type: biochemical; conditions: UV radiation
Procedure: as §3
UV-Induced Aggregation of BGC: Exposure to UV radiation is a contributing factor to cataract formation. […]
The aggregation reaction was initiated by exposing the reaction mixture to UVB radiation. Aggregation was monitored for changes in light scattering by measuring absorbance at 600 nm at t=0, 15, 30 and 45 minutes. Mean percentage absorbance±SD from triplicate or quadruplicate wells plotted on a graph (FIG. 2C). EC50 value was calculated as 64.8 (±1.3) […], which is the concentration of CAP4349-M concentration producing half-maximal response of BGC aggregation in presence of AAC.

[6] = tested on: HLE cell line SRA 01/04 cells; test: Heat-induced cell death of human lens epithelial cells; assay type: cell-based; conditions: pre-incubated 2 hours; 50° C. for 40 m
Text: (§4) Efficacy of CAP4349 in protection of human lens epithelial cells from stress, as a measure of cellular AC function: Heating of intact human lenses dramatically promotes conversion of soluble AC into HMW aggregates and AC is responsible for protecting human lens epithelial (HLE) cells from thermal stress induced cell death (Peschek J et al. (2009), Proc. Natl. Acad. Sci. USA. 106(32):13272-13277). Survival of HLE cells following UV stress also depends on AC activity (Kumar P. et al., (2007) Biochem. J., 408:251-258). Assays for measuring cell-survival assays following heat or UV exposure were developed as a potential surrogate for AC chaperone activity. HLE cell line SRA 01/04 cells were pre-incubated for 2 hours with CAP4349 and then exposed to heat (50° C. for 40 m) or UV light (48 seconds).

[7] = tested on: HLE cell line SRA 01/04 cells; test: UV-induced cell death of human lens epithelial cells; assay type: cell-based; conditions: pre-incubated 2 hours; UV light 48 seconds
Text: as §4

[8] = tested on: HLE cell line SRA 01/04 cells; test: Viability of human lens epithelial cells under normal conditions; assay type: cell-based; conditions: no stress
Text: as §4, with “HLE cell line SRA 01/04 cells were pre-incubated for 2 hours with CAP4349 and then exposed to heat (50° C. for 40 m) or UV light (48 seconds).” left out

[9] = tested on: AAC(R116C)-GFP in HeLa cells; test: High-content assay for AAC aggregation (p62-positive inclusions); assay type: cell-based, human; conditions: GFP fluorescence
Procedure: Cellular effects of CAP4349 were evaluated using an automated high-content assay for AAC aggregation. AAC(R116C)-GFP has been reported to form p62 positive inclusions (p62 is known to co-localize with ubiquitinated aggregates in several protein aggregation diseases) (Neal R, et al. (2010) Mol. Vis. 16:2137-2145.). Experiments were carried out to determine whether CAP4349 had any effect on co-localization of AAC and p62 in HeLa cells.

[10] = tested on: bovine lens soluble extracts; test: UV-induced opacification of bovine lens lysate; assay type: biochemical; conditions: UV radiation
Text: (§5) Both bovine and human lens lysates contain AAC as well as multiple endogenous client proteins, all of which are present at physiological ratios in a physiologically-relevant milieu of ions, redox pairs and antioxidants.

[11] = tested on: human lens soluble extracts; test: UV-induced opacification of human lens lysate; assay type: biochemical; conditions: UV radiation
Text: as §5

porcine lenses = test: UV-induced opacification of porcine lenses ex vivo; conditions: pretreated with 125 μM
Procedure: Porcine lenses were pretreated with 125 μM CAP4349 (or vehicle) and UV irradiated (or not). Porcine lenses (Sierra for Medical Science, Inc., Whittier, CA) have been used previously in ex vivo models of cataracts (Raju, M. (2014) Biochemistry, 53(16):2615-2623.).

[12] = Estimated maximum concentration in the lens after topical ophthalmic dosing; conditions: meglumine formulated; topical ophthalmic bioavailability 2-5%
Text: as §1

[13] = versus meglumine salt of CAP4349

solubility (Solubility; aqueous with cosolvent or surfactant or cyclodextrin, 5% aqueous (2-Hydroxypropyl)-β-cyclodextrin, read-out: solubility in 5% aqueous HPBCD): 40 mg/mL
solubility (Solubility; water, read-out: aqueous solubility): 25 mg/mL
fold increase in HPBCD solubility (Solubility; [13]): 1,238 fold
fold increase in aqueous solubility (Solubility; [13]): 774 fold
SMILES: O=C(OCOP(=O)(O)O)c1ccc2nc(-c3cc(Cl)cc(Cl)c3)oc2c1.[Na+].[Na+] [CAP4357]

SMILES: CNC[C@H](O)[C@@H](O)[C@H](O)[C@H](O)CO.O=C(O)c1ccc2nc(-c3cc(Cl)cc(Cl)c3)oc2c1 [CAP4349-M]
prevention of hAAC aggregation (band intensities of aggregated and non-aggregated form) (AAC [1]): dose-dependent prevention of hAAC aggregation
maximum solubility [2]: 0.0323 mg/mL

SMILES: O=C(O)c1ccc2nc(-c3cc(Cl)cc(Cl)c3)oc2c1 [CAP4349-M]
EC50 (AAC [3]; UV light 60 minutes, absorbance, n=3 or 4, read-out: EC50, half-maximal response of hAAC aggregation): 19.7 µM

SMILES: O=C(O)c1ccc2nc(-c3cc(Cl)cc(Cl)c3)oc2c1 [CAP4349, 2-(3,5-dichlorophenyl) benzo[d]oxazole-6-carboxylic acid]
EC50 (AAC [3]; read-out: EC50 for the prevention of hACC aggregation (as restated in Example 7)): 19.5 µM
protection of lysozyme from aggregation by AAC (AAC [4]): increased protection of lysozyme from aggregation
protection provided by AAC against UV-induced BGC aggregation (AAC [5]): increased the protection provided by AAC against UV-induced BGC aggregation in a dose-dependent manner
protection from heat-induced cell death [6]: protects the cells from heat-induced and UV-induced cell death in a dose-dependent manner
protection from UV-induced cell death [7]: protects the cells from heat-induced and UV-induced cell death in a dose-dependent manner
viability under normal conditions [8]: does not alter the viability
aggregates of AAC(R116C)-GFP co-localized with p62 [9]: decreased
protection of bovine lysate from UV-induced opacification [10]: protected both bovine (FIG. 5A) and human (FIG. 5B) lysates from UV-induced opacification in a dose-dependent manner
protection of human lysate from UV-induced opacification [11]: protected both bovine (FIG. 5A) and human (FIG. 5B) lysates from UV-induced opacification in a dose-dependent manner
UV-induced opacification of porcine lenses (porcine lenses): prevent UV-induced opacification
maximum concentration in the lens [12]: about 5 μM
